# Results published in patent US4093574A, “Somatostatin analogs and intermediates thereto” (Eli Lilly and Company, priority 1977, dated 1978).
# Where a SMILES comes first, the peptide text is derived from it. Bridges are numbered along the chain shown (N, C = ends). [ ]: non-standard residue; d: D form.
# Columns and labels:
# gut motility = experiment: action on gut motility in conscious dogs (intralumenal pressure); assay type: in vivo; conditions: intravenous infusion over ten minutes, pylorus, duodenum, antrum
# Description: D-Ser^2, D-Trp^8 -somatostatin also was tested for its action on gut motility in conscious dogs. Three dogs having intralumenal catheters placed in the antrum, duodenum, and pylorus were used. Pressure changes in the gut lumen were recorded on a Visicorder using strain gauges and miniature light beam galvanometers. After a steady state control was established, D-Ser^2, D-Trp^8 -somatostatin was infused intravenously over a ten minute period. […] This compared to a minimum effective dose of 0.125-0.25 μg./kg.--10 minutes for somatostatin itself.
# growth hormone secretion = experiment: release of growth hormone in sodium pentobarbital-stimulated rats; assay type: in vivo, male Spraque-Dawley rats; conditions: serum GH at 20 minutes
# Description: D-Ser^2, D-Trp^8 -somatostatin also was tested for its activity with respect to the release of growth hormone. The procedure which was employed is carried out using male Spraque-Dawley rats weighing 100-120 grams (Laboratory Supply Company, Indianapolis, Ind.). The test is a modification of the method of P. Brazeau, W. Vale, and R. Guilleman, Endocrinology, 94 184 (1974). In this assay, five groups of eight rats each were employed. Sodium pentobarbital was administered intraperitoneally to all of the rats to stimulate growth hormone secretion. One group served as the control and received only saline. Two of the groups received somatostatin, one at 2 μg./rat, subcutaneously, and the other at 50 μg./rat, subcutaneously. The other two groups received D-Ser^2, D-Trp^8 -somatostatin, one at 2 μg./rat, subcutaneously, and the other at 50 μg./rat, subcutaneously. The serum concentration of growth hormone was measured 20 minutes after simultaneous administration of sodium pentobarbital and test compound. The degree of inhibition of serum growth hormone concentration then was determined with respect to the control group, and the relative activities of D-Ser^2, D-Trp^8 -somatostatin and somatostatin itself were compared. […]
# pancreatic secretion = experiment: inhibition of pancreatic secretion in dogs with pancreatic and total gastric fistula; assay type: in vivo
# Description: In three dogs having both pancreatic and total gastric fistula, secretion from the pancreas was induced by infusion of […] at 2 units/kg-hr. and cholecystokinin at 0.45 unit/kg-hr., and gastric HCl by infusion of tetragastrin at 0.5 μg/kg-hr. After a steady response was established, each dog received D-Ser^2, D-Trp^8 -somatostatin for one hour at 0.2 μg/kg-hr. The peak inhibitory effect expressed as percent change over control for total protein was -76%. This corresponds to the inhibitory effect obtained by administration of about 0.6 μg/kg-hr. of somatostatin.
# [1] = test system: gastric HCl secretion induced by the C-terminal tetrapeptide of gastrin; experiment: in vivo inhibition of gastric acid secretion in dogs with chronic fistula and Heidenhain pouch
# Description: D-Ser^2, D-Trp^8 -somatostatin was tested in dogs for its in vivo inhibition of gastric acid secretion. In six dogs with chronic fistula and Heidenhain pouch, gastric HCl secretion was induced by infusion of the C-terminal tetrapeptide of gastrin at 0.5 μg/kg-hr. Each dog served as its own control, receiving on a separate day only the tetrapeptide. On another day, the six dogs received the tetrapeptide, and, after one hour of steady state secretion of HCl, D-Ser^2, D-Trp^8 -somatostatin was infused at 0.20 μg/kg-hr. for one hour. Collection of gastric acid samples was continued for an additional 1.5 hours at 15 minute intervals. The samples were titrated to pH 7 with an automatic titrator. The maximal inhibitory effect of the D-Ser^2, D-Trp^8 -somatostatin was extrapolated against the dose-response curve of somatostatin, and the relative potency of the analog to that of somatostatin is expressed as percent activity. D-Ser^2, D-Trp^8 -somatostatin inhibited steady state acid secretion induced by the C-terminal tetrapeptide of gastrin by 73.5 ± 4.8% standard error of mean. This effect is equivalent to that of 0.545 μg/kg-hr. of somatostatin. Its activity relative to that of somatostatin thus is 273%.
# [2] = test system: glucagon and insulin secretion; experiment: in vivo inhibition of glucagon and insulin secretion upon stimulation with L-alanine; set-up: species or system mongrel dogs; conditions: fasted dogs, intravenous infusion
# Description: D-Ser^2, D-Trp^8 -somatostatin was tested for its in vivo activity in inhibiting glucagon and insulin secretion upon stimulation with L-alanine. Normal mongrel dogs of either sex were fasted overnight. Control blood samples were obtained, and then an intravenous infusion of saline, somatostatin, or D-Ser^2, D-Trp^8 -somatostatin was started. After 30 minutes, L-alanine additionally was administered intravenously for a period of 15 minutes. The infusion of saline, somatostatin, or D-Ser^2, D-Trp^8 -somatostatin was continued for 15 minutes after completion of the L-alanine infusion. From the above it was determined that the minimal effective concentration of D-Ser^2, D-Trp^8 -somatostatin is about 25 nanograms/kg./min. whereas the minimal effective concentration of somatostatin is about 100 nanograms/kg./min.
smiles,measurement,setting,value
"C[C@H](N)C(=O)N[C@H](CO)C(=O)N[C@H]1CSSC[C@@H](C(=O)O)NC(=O)[C@H](CO)NC(=O)[C@H]([C@@H](C)O)NC(=O)[C@H](Cc2ccccc2)NC(=O)[C@H]([C@@H](C)O)NC(=O)[C@H](CCCCN)NC(=O)[C@@H](Cc2c[nH]c3ccccc23)NC(=O)[C@H](Cc2ccccc2)NC(=O)[C@H](Cc2ccccc2)NC(=O)[C@H](CC(N)=O)NC(=O)[C@H](CCCCN)NC1=O [D-Ser^2, D-Trp^8 -somatostatin] (H-A[dS]CKNFF[dW]KTFTSC-OH; disulfide 3-14)",effect on intralumenal pressure,gut motility,initially increased the intralumenal pressure in the pylorus and then decreased it whereas the pressure in the duodenum and the antrum remained depressed throughout the test
same,inhibition of growth hormone secretion over control,growth hormone secretion; 2 μg./rat subcutaneously,same effect on growth hormone secretion as somatostatin
same,inhibition of growth hormone secretion over control,growth hormone secretion; 50 μg./rat subcutaneously,66%
same,"peak inhibitory effect, percent change over control for total protein","pancreatic secretion; 0.2 μg/kg-hr for one hour, pancreatic secretion induced by secretin and cholecystokinin",-76%
same,dose of somatostatin giving corresponding inhibitory effect on pancreatic secretion,pancreatic secretion; analog at 0.2 μg/kg-hr,about 0.6 μg/kg-hr.
same,dose of somatostatin with equivalent effect on acid secretion,"[1]; analog at 0.20 μg/kg-hr., extrapolated against dose-response curve of somatostatin",0.545 μg/kg-hr.
same,inhibition of steady state acid secretion induced by the C-terminal tetrapeptide of gastrin,"[1]; infused at 0.20 μg/kg-hr. for one hour, ± standard error of mean",73.5 ± 4.8%
same,activity relative to that of somatostatin (gastric acid secretion),[1]; relative potency expressed as percent activity,273%
same,minimal effective concentration for inhibiting glucagon and insulin secretion,[2],about 25 nanograms/kg./min.
